Results on 34 molecules are retold here after patent publication US20080221161A1, “HETEROCYCLIC MODULATORS OF TGR5 FOR TREATMENT OF DISEASE” (KALYPSYS, INC., priority 2007, published 2008).

The target in the assay is T1, human TGR5 (Homo sapiens, UniProt Q8TDU6).
T1 construct: expressed in transfected cells; host or cells: HEK-293 cells, stably transfected (pcDNA 3.1, Fugene6, geneticin selection)
T1 sequence (Q8TDU6 1-330): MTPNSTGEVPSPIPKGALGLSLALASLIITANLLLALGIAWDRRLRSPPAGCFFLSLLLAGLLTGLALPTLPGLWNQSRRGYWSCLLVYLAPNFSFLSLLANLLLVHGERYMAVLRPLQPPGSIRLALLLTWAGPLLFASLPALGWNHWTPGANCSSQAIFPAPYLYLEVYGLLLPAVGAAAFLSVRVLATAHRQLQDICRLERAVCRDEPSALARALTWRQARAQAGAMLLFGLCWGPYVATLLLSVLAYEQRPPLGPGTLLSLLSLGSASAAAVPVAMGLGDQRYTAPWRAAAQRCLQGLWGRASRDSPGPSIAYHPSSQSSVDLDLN
Kind of assay: cAMP production assay in HEK293-TGR5 cells. Type of assay: cell-based. The note with it: HEK293 cells stably expressing human TGR5; 30 minutes stimulation; LANCE cAMP TR-FRET; read-out: cAMP Production in 293-TGR5 Cells EC50. The method, then:
HEK293 cells stably expressing TGR5 (HEK293-TGR5) were established by stably transfecting HEK-293 cells with an expression vector (pcDNA 3.1, Invetrogen) inserted with human TGR5 cDNA using Fugene6 (Roche, Indianapolis, Ind.) according to conventional methods. Cells were grown in DMEM (invitrogen, Carlsbad, Calif.) supplemented with 10% FBS, 1% penicillin/streptomycin under geneticin selection. The presence of TGR5 transcripts in these cells was confirmed using branched DNA (bDNA, Genospectra, Inc., Fremont Calif.) following the manufacturer's protocol and using specific probes for human TGR5. cAMP production assay was performed in high throughput 1536 well format using LANCE cAMP detection kit (Perkin Elmer Inc., Boston, Mass.) according to the manufacturer's protocol. Briefly, HEK293-TGR5 cells were harvested using non-enzymatic cell dissociation buffer (Invitrogen, Carlsbad, Calif.) and suspended in DMEM supplemented with 0.1% FBS at a density of 800,000 cells/ml. Alexa antibody was added to the cell suspension, and 4 ul of the mixture was dispensed in white opaque tissue culture treated Greiner 1536 well plates (USA Scientific, Inc., Ocala, Fla.). After an overnight incubation at 37C in an atmosphere of 10% CO2 and 95% humidity, 1 ul of 5 mM IBMX (Sigma, St. Louis, Mo.) solution in DMEM was dispensed for a final concentration of 1 mM. Cells were then stimulated with test compounds for 30 minutes, after which time 5 ul of detection reagent was added and incubated for 1-7 hrs at room temperature. TR-FRET signal was detected using the Viewlux (Perkin Elmer Inc., Boston Mass.). EC50 values were determined using Graph Pad Prizm analysis (GraphPad Software, Inc).
On the technique in general: Cyclic AMP is a second messenger, typically raised through Gs and lowered through Gi signalling.
Broadly, the EC50 is the concentration at which the effect is half-maximal. In the case of `COc1ccc2cc(CNC(=O)COc3cccc4ncccc34)c(-c3ccsc3)nc2c1` [Example 119, N-((7-Methoxy-2-(thiophen-3-yl)quinolin-3-yl)methyl)-2-(quinolin-5-yloxy)acetamide], the EC50 was < 10 µM.

In the case of `COc1ccc2nc(-c3ccsc3)c(CNCCc3ccc(Cl)cc3)cc2c1` [Example 27, 2-(4-Chlorophenyl)-N-((6-methoxy-2-(thiophen-3-yl)quinolin-3-yl)methyl)ethanamine], the EC50 is > 10 µM. As for `Oc1ccc2cc(CNCCc3ccc(Br)cc3)c(-c3ccoc3)nc2c1` [Example 109, 3-((4-Bromophenethylamino)methyl)-2-(furan-3-yl)quinolin-7-ol], the EC50 is > 10 µM. With `COc1ccc2cc(C(=O)NCCc3ccc(Cl)cc3)c(-c3ccsc3)nc2c1` [Example 19, N-(4-Chlorophenethyl)-7-methoxy-2-(thiophen-3-yl)quinoline-3-carboxamide] the figure was < 10 µM.

As for `NC(=O)c1ccc2cc(CNCCc3ccc(Br)cc3)c(-c3ccsc3)nc2c1` [Example 139, 3-((4-Bromophenethylamino)methyl)-2-(thiophen-3-yl)quinoline-7-carboxamide], the EC50 is < 10 µM. In the case of `COc1cc2nc(-c3ccsc3)c(CNCCc3ccc(Br)cc3)cc2cc1F` [Example 146, 2-(4-Bromophenyl)-N-((6-fluoro-7-methoxy-2-(thiophen-3-yl)quinolin-3-yl)methyl)-ethanamine], the EC50 was < 10 µM. Take `Oc1ccc2cc(CNCc3ccc(C(F)(F)F)cc3)c(-c3ccsc3)nc2c1` [Example 79, 2-(Thiophen-3-yl)-3-((4-(trifluoromethyl)benzylamino)methyl)quinolin-7-ol]: the EC50 is < 10 µM.

With `COc1ccc2cc(CNCCc3ccc(Cl)c(Cl)c3)c(-c3ccsc3)nc2c1` [Example 61, 2-(3,4-Dichlorophenyl)-N-((7-methoxy-2-(thiophen-3-yl)quinolin-3-yl)methyl)ethanamine], the EC50 was < 10 µM. Take `COc1ccc2cc(CCNCCc3ccc(Br)cc3)c(-c3ccsc3)nc2c1` [Example 102, N-(4-bromophenethyl)-2-(7-methoxy-2-(thiophen-3-yl)quinolin-3-yl)ethanamine]: the EC50 was > 10 µM. With `COc1ccc2cc(C(=O)NCc3ccc(C(F)(F)F)cc3)c(-c3ccsc3)nc2c1` [Example 18, 7-methoxy-2-(thiophen-3-yl)-N-(4-(trifluoromethyl)benzyl)quinoline-3-carboxamide] the figure was > 10 µM; with `COc1ccc2cc(CNCCc3cccnc3)c(-c3ccncc3)nc2c1` [Example 76, N-((7-Methoxy-2-(pyridin-4-yl)quinolin-3-yl)methyl)-2-(pyridin-3-yl)ethanamine], < 10 µM; with `COc1ccc2cc(NCc3ccc(C(F)(F)F)cc3)c(-c3ccsc3)nc2c1` [Example 115, 7-Methoxy-2-(thiophen-3-yl)-N-(4-(trifluoromethyl)benzyl)quinolin-3-amine], > 10 µM. `Oc1cc2nc(-c3ccsc3)c(CNCCc3ccc(Br)cc3)cc2cc1F` [Example 147, 3-((4-Bromophenethylamino)methyl)-6-fluoro-2-(thiophen-3-yl)quinolin-7-ol]: the EC50 is > 10 µM. As for `COc1ccc2cc(CN[C@H](C)c3ccc(Br)cc3)c(-c3ccsc3)nc2c1` [Example 130, (R)-1-(4-Bromophenyl)-N-((7-methoxy-2-(thiophen-3-yl)quinolin-3-yl)methyl)ethanamine], the figure is < 10 µM; as for `COc1cc2nc(-c3ccsc3)c(CNCc3ccc(C(F)(F)F)cc3)cc2cc1O` [Example 122, 7-Methoxy-2-(thiophen-3-yl)-3-((4-(trifluoromethyl)benzylamino)methyl)quinolin-6-ol], > 10 µM; as for `Oc1ccc2cc(CNCCc3ccc(Br)cc3)c(-c3ccco3)nc2c1` [Example 103, 3-((4-Bromophenethylamino)methyl)-2-(furan-2-yl)quinolin-7-ol], > 10 µM. For `Oc1cc2cc(CNCCc3ccc(Br)cc3)c(-c3ccsc3)nc2cc1F` [Example 126, 3-((4-Bromophenethylamino)methyl)-7-fluoro-2-(thiophen-3-yl)quinolin-6-ol], the EC50 is < 10 µM. For `Oc1ccc2cc(CNCCc3ccc(Cl)cc3)c(-c3ccoc3)nc2c1` [Example 118, 3-((4-Chlorophenethylamino)methyl)-2-(furan-3-yl)quinolin-7-ol], the EC50 is > 10 µM. Take `CCOC(=O)c1ccc2cc(CNCCc3ccc(Br)cc3)c(-c3ccsc3)nc2c1` [Example 137, Ethyl 3-((4-bromophenethylamino)methyl)-2-(thiophen-3-yl)quinoline-7-carboxylate]: the EC50 is > 10 µM. Turning to `COc1ccc2cc(CNCc3ccc(C(F)(F)F)cc3)c(-c3ccccc3)nc2c1` [Example 48, 1-(7-Methoxy-2-phenylquinolin-3-yl)-N-(4-(trifluoromethyl)benzyl)methanamine], the EC50 is < 10 µM. Regarding `COc1ccc2cc(C(C)NCCc3ccc(Br)cc3)c(-c3ccsc3)nc2c1` (racemic) [Example 143, (±)-N-(4-Bromophenethyl)-1-(7-methoxy-2-(thiophen-3-yl)quinolin-3-yl)ethanamine], the EC50 is > 10 µM. `FC(F)(F)Oc1ccc2cc(CNCc3ccc(C(F)(F)F)cc3)c(-c3ccsc3)nc2c1` [Example 12, 1-(2-(Thiophen-3-yl)-7-(trifluoromethoxy)quinolin-3-yl)-N-(4-(trifluoromethyl)benzyl)methanamine]: the EC50 was < 10 µM. For `COc1cc(OC)c(CNCc2cc3ccc(OC)cc3nc2-c2ccncc2)c(OC)c1` [Example 74, 1-(7-Methoxy-2-(pyridin-4-yl)quinolin-3-yl)-N-(2,4,6-trimethoxybenzyl)methanamine], the EC50 is > 10 µM.

With `COc1ccc2cc(CNCCCc3ccccc3)c(-c3ccncc3)nc2c1` [Example 81, N-((7-Methoxy-2-(pyridin-4-yl)quinolin-3-yl)methyl)-3-phenylpropan-1-amine], the EC50 was < 10 µM.

For `COc1ccc2cc(CNCc3ccc(C(F)(F)F)cc3)c(-c3ccccc3F)nc2c1` [Example 24, 1-(2-(2-Fluorophenyl)-7-methoxyquinolin-3-yl)-N-(4-(trifluoromethyl)benzyl)methanamine], the 50% effective concentration (EC50) was > 10 µM.

For `OCc1ccc2cc(CNCCc3ccc(Br)cc3)c(-c3ccsc3)nc2c1` [Example 141, (3-((4-Bromophenethylamino)methyl)-2-(thiophen-3-yl)quinolin-7-yl)methanol], the EC50 was < 10 µM. With `COc1ccc2cc(CNc3ccccc3)c(-c3ccsc3)nc2c1` [Example 68, N-((7-Methoxy-2-(thiophen-3-yl)quinolin-3-yl)methyl)aniline] the figure was < 10 µM. As for `CCOc1ccc2cc(CNCCc3ccc(Cl)cc3)c(-c3ccsc3)nc2c1` [Example 50, 2-(4-Chlorophenyl)-N-((7-ethoxy-2-(thiophen-3-yl)quinolin-3-yl)methyl)ethanamine], the figure is < 10 µM; as for `COc1ccc2cc(CNCc3ccc(C(F)(F)F)cc3)c(Sc3ccncc3)nc2c1` [Example 94, 1-(7-Methoxy-2-(pyridin-4-ylthio)quinolin-3-yl)-N-(4-(trifluoromethyl)benzyl)methanamine], > 10 µM. With `C[C@@H](NCc1cc2ccc(O)cc2nc1-c1ccsc1)c1ccc(Br)cc1` [Example 134, (R)-3-((1-(4-Bromophenyl)ethylamino)methyl)-2-(thiophen-3-yl)quinolin-7-ol] the figure was < 10 µM; with `Clc1ccc(CCNCc2cc3ccccc3nc2-c2ccsc2)cc1` [Example 29, 2-(4-Chlorophenyl)-N-((2-(thiophen-3-yl)quinolin-3-yl)methyl)-ethanamine], > 10 µM; with `COc1ccc2cc(CNCc3ccc(C(F)(F)F)cc3)c(-c3cccnc3)nc2c1` [Example 6, 1-(7-Methoxy-2-(pyridin-3-yl)quinolin-3-yl)-N-(4-(trifluoromethyl)benzyl)methanamine], < 10 µM.

On to `COc1ccc2cc(CNCc3ccc(C(F)(F)F)cc3)c(-c3ccco3)nc2c1` [Example 77, 1-(2-(Furan-2-yl)-7-methoxyquinolin-3-yl)-N-(4-(trifluoromethyl)benzyl)methanamine], for which the EC50 was > 10 µM.

Regarding `COc1ccc2cc(CNCCc3ccc(OC)c(Br)c3)c(-c3ccsc3)nc2c1` [Example 65, 2-(3-Bromo-4-methoxyphenyl)-N-((7-methoxy-2-(thiophen-3-yl)quinolin-3-yl)methyl)ethanamine], the EC50 is < 10 µM.
